Test results taken from patent US7282556B2, “Polynucleotides and polypeptides relating to the modulation of SIRPα-CD47” (Emory University, priority 2001, dated 2007).
Values after ≈ are worked out from the molar mass of the structure shown. Where a SMILES comes first, the peptide text is derived from it. Bridges are numbered along the chain shown (N, C = ends).

Tests used:
[1] = Solubility of synthesized peptides in aqueous phase; format: physicochemical; conditions: for solubility: in aqueous phase
[2] = biological target: T1, CD47-SIRPα1 binding (CD47-AP / SIRPα1-GST) (Homo sapiens, UniProt P78324); test: CD47-AP binding to immobilized SIRPα1-GST (alkaline phosphatase activity); conditions: SIRPα-GST coated 2 μg/ml, CD47-AP 1-2 μg/ml
T1 construct: Microtiter plates were coated with SIRPα1 extracellular domain fusion protein (SIRPα1-GST, 1 μg/ml) for 2 hr; A construct consisting of the extracellular domain of human CD47 fused to the catalytic domain of human placental AP; made in house
T1 sequence (P78324 31-373 limits assumed): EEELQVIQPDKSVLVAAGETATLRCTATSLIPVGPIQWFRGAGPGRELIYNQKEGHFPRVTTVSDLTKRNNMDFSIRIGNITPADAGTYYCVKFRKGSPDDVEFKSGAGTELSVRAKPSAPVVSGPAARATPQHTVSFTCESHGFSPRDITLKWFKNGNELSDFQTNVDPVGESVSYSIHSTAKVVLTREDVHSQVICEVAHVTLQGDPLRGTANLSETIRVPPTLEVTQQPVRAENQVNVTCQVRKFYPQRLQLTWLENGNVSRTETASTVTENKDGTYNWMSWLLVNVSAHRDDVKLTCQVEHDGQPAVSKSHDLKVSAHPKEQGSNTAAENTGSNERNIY
Procedure: (§1) FIG. 2C (right panel) is a bar graph that illustrates CD47-AP specifically binds to SIRPα-GST fusion protein but not SIRPβ-GST. In this panel, microtiter plates were coated with either SIRPα-GST or highly similar SIRPβ-GST (10 μg/ml) followed by blocking with BSA. To each well was then added recombinant CD47-AP followed by washing. Bound CD47-AP was then detected by assay for alkaline phosphatase after addition of appropriate substrate.
FIGS. 6A-6C are graphs that illustrate the effects of synthetic peptides on CD47-SIRPα binding. FIG. 6A illustrates the effect of peptide C5/D5.1 on CD47-SIRPα binding. […] After blocking, CD47-AP was added in the absence or presence of synthetic peptides C5/D5.1 and control peptides C5/D5.4, C5/D5.11 and C5/D5.12 (used as 1 mM each). “*” p<0.01. CD47-AP binding was then detected by assay of alkaline phosphatase activity and normalized with respect to binding in the absence of any peptide (CD47-AP only). FIG. 6B illustrates the effect of dose-dependent inhibition of CD47-SIRPα1 binding by peptide C5/D5.1 performed as in FIG. 6A but with increasing concentrations of peptide as indicated. […] Binding of these proteins were detected by a goat anti-GST antibody followed by peroxidase conjugated anti-goat secondary (for detecting SIRPα1-GST) or directly developed for alkaline phosphatase activity (for detecting CD47-AP). […]

SIRPβ-GST = biological target: T2, SIRPβ-GST (Homo sapiens, UniProt O00241); test: CD47-AP binding to SIRPβ-GST coated wells; conditions: FIG. 2C
T2 construct: The extracellular domain of SIRPα1, SIRPβ1 and GST fusion proteins were produced after transfected into 293E cells; made in house; host or cells: 293E cells
T2 sequence (O00241 30-371 limits assumed): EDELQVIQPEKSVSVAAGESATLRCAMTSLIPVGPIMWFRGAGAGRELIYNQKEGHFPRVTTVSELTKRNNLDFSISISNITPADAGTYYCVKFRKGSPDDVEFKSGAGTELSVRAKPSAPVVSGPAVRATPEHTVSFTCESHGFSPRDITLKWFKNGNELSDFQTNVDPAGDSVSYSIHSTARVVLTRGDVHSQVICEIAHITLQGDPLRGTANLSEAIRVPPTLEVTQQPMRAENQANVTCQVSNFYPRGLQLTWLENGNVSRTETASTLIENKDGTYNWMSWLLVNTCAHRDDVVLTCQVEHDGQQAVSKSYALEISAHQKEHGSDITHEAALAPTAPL
Procedure: as §1
Since the above results and those of others (Jiang, et al J. Biol. Chem., 274: 559, Seiffert, et al., Blood, 94: 3633, Han, et al., J. Biol. Chem., 275: 37984, Oldenborg, et al., Science, 288: 2051) strongly implicate CD47 as a membrane receptor for SIRPα, experiments were performed to test the direct binding of the IgV loop of CD47 to SIRPα (FIG. 2B). A recombinant CD47 IgV loop fused to alkaline phosphatase (CD47-AP) was constructed as detailed in the methods and expressed in mammalian (CHO) cells in order to allow for proper folding and glycosylation. The expressed CD47-AP fusion protein was then purified by immunoaffinity chromatography using anti CD47 mAb PF3.1-Sepharose. The structure of CD47 IgV domain in the purified CD47-AP was further tested for the ability to react with multiple functionally blocking anti-CD47 extracellular domain-reactive mAbs (Liu, et al., J. Biol. Chem., 276: 40156). […]

mAb C5/D5 = test: Peptide competition of phage binding to C5/D5 by ELISA; conditions: up to 10 mM
Procedure: To mimic the possible constrained structure in phage, in vitro oxidation was performed after peptide synthesis to introduce disulfide bonds between Cysteine residues in these peptides. […] There are total four tryptophan (W) residues in CD47. W2 is part of the signal peptide and therefore is not present in the mature protein. W58 is present in the N-terminus extracellular IgV-like domain of CD47 and is conserved among many IgV super family members. W136 is also located in the putative extracellular domain whereas W157 is thought to be in a transmembrane region of the protein (Lindberg, et al., J. Cell Biol., 123(2): 485-96, 1993). Amino acids Arginine and Valine (RV/L), present in many selected CL10 and LL9 phages are adjacent in CD47 at amino acid position 132-133, two amino acids upstream from W136. Both amino acids R and V are also found close to W58. Thus, the C5/D5-binding sequence on CD47 is likely to comprise several distant residues brought into proximity by the folding of the protein.
Antibody phage binding assays were performed in microtiter plate wells (Limbro-Titertek, Flow Laboratories) which were coated with relevant antibodies (20 μg/ml) for two hours at room temperature. All subsequent incubations were performed at room temperature. […] Microtiter wells were then analyzed in a microtiter plate reader at 405 nanometers (nm).

solubility [1] [mM] | Compound | further results
10 (≈ 13.8 mg/mL) | CC[C@H](C)[C@@H]1NC(=O)[C@H](C(C)C)NC(=O)[C@H](CCCNC(=N)N)NC(=O)[C@H](CCC(=O)O)NC(=O)[C@@H](N)CSSC[C@@H](C(=O)O)NC(=O)[C@H](CCCNC(=N)N)NC(=O)[C@H](C(C)C)NC(=O)[C@H](Cc2c[nH]c3ccccc23)NC(=O)CNC(=O)[C@H]([C@@H](C)O)NC(=O)CNC1=O [C5/D5.1, CERVIGTGWVRC] (H-CERVIGTGWVRC-OH; disulfide 1-12; N-terminus and C-terminus assumed) | 
10 (≈ 11.7 mg/mL) | CC[C@H](C)[C@H](NC(=O)[C@@H](NC(=O)[C@H](CCCNC(=N)N)NC(=O)[C@@H](N)CCC(=O)O)C(C)C)C(=O)NCC(=O)N[C@H](C(=O)NCC(=O)N[C@@H](Cc1c[nH]c2ccccc12)C(=O)N[C@H](C(=O)N[C@@H](CCCNC(=N)N)C(=O)O)C(C)C)[C@@H](C)O [C5/D5.4, ERVIGTGWVR] (H-ERVIGTGWVR-OH; N-terminus and C-terminus assumed) | 
2 (≈ 2.75 mg/mL) | CC[C@H](C)[C@@H]1NC(=O)[C@H](C(C)C)NC(=O)CNC(=O)[C@H](CCCNC(=N)N)NC(=O)[C@H](Cc2c[nH]c3ccccc23)NC(=O)[C@H]([C@@H](C)O)NC(=O)[C@H](CCCNC(=N)N)NC(=O)[C@H](C(C)C)NC(=O)CNC(=O)[C@@H](N)CSSC[C@@H](C(=O)O)NC(=O)[C@H](CCC(=O)O)NC1=O [C5/D5.5, CGVRTWRGVIEC] (H-CGVRTWRGVIEC-OH; disulfide 1-12; N-terminus and C-terminus assumed) | solubility (in words) [1]: limited solubility
10 (≈ 13.8 mg/mL) | CC[C@H](C)[C@@H]1NC(=O)[C@H](C(C)C)NC(=O)[C@H](CCCNC(=N)N)NC(=O)[C@H](Cc2c[nH]cn2)NC(=O)[C@@H](N)CSSC[C@@H](C(=O)O)NC(=O)[C@H](CCCNC(=N)N)NC(=O)[C@H](C(C)C)NC(=O)[C@H](Cc2c[nH]c3ccccc23)NC(=O)CNC(=O)[C@H]([C@@H](C)O)NC(=O)CNC1=O [C5/D5.11, CHRVIGTGWVRC] (H-CHRVIGTGWVRC-OH; disulfide 1-12; N-terminus and C-terminus assumed) | 
1 (≈ 1.4 mg/mL) | CC(C)[C@@H]1NC(=O)[C@H](Cc2c[nH]c3ccccc23)NC(=O)CNC(=O)[C@H](Cc2c[nH]cn2)NC(=O)CNC(=O)[C@@H]2CCCN2C(=O)[C@H](C(C)C)NC(=O)[C@H](CCCNC(=N)N)NC(=O)[C@H](Cc2c[nH]cn2)NC(=O)[C@@H](N)CSSC[C@@H](C(=O)O)NC(=O)[C@H](CCCNC(=N)N)NC1=O [C5/D5.12, CHRVPGHGWVRC] (H-CHRVPGHGWVRC-OH; disulfide 1-12; N-terminus and C-terminus assumed) | 
 | CD47-AP: recombinant CD47 IgV loop fused to alkaline phosphatase | binding of AP fusion protein to SIRPα-GST (AP activity, OD405) [2]: bound; binding of CD47-AP to SIRPβ-GST (SIRPβ-GST): lack of binding
 | CRRVIGRVGCGC (listed as Homo sapiens) [C5/D5.3] | inhibitory effect of peptide on phage binding to C5/D5 (mAb C5/D5): no inhibitory effects
